Test results taken from patent publication US20250221966A1, “RXFP1 AGONISTS” (BRISTOL-MYERS SQUIBB COMPANY, priority 2021, published 2025).

What follows are compounds tested against T1, human RXFP1 (Homo sapiens, UniProt Q9HBX9) (assay: RXFP1 cAMP assay (hRXFP1 HEK293 cAMP assay, HTRF)). Details: HEK293 cells stably expressing human RXFP1, 30 min at room temperature, read-out: cAMP hRXFP1 HEK293 Assay EC50.
T1 construct: expressed in transfected cells
T1 sequence (Q9HBX9 1-757): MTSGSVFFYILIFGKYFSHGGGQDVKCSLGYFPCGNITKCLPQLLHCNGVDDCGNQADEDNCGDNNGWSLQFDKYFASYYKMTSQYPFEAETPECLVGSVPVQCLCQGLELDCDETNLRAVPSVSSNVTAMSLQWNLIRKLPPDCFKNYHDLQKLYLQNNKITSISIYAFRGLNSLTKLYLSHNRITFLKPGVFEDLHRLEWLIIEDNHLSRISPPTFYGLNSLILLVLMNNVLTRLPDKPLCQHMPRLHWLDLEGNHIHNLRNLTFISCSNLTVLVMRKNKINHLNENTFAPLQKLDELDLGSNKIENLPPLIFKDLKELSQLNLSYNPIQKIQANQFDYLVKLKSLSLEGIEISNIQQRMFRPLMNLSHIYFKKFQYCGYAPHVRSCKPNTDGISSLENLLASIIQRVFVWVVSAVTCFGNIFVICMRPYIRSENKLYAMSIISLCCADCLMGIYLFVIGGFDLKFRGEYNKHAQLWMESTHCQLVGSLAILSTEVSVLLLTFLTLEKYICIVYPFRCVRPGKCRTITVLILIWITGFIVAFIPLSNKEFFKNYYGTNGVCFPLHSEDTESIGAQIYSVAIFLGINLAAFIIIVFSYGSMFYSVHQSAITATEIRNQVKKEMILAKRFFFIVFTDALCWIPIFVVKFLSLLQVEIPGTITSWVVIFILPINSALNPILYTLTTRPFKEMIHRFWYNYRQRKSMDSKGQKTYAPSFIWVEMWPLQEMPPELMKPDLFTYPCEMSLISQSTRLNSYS
Assay type: cell-based
In short: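 HEK293 cells stably expressing human RXFP1 (1500 cells/well) in HBSS/20 mM HEPES/0.05% BSA/0.5 mM IBMX. Compounds were tested at 0.010 nM–50 μM final (2% DMSO) for 30 min at room temperature. cAMP was measured by HTRF and values derived by 4-parameter logistic fit.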

Structure (SMILES)	EC50 [µM]
COc1ccc(C2=NO[C@H]3C[C@H](CO)C[C@@H]23)cc1C(=O)N[C@H]1[C@@H](C(=O)Nc2ccc(F)c(C(F)(F)F)c2)[C@H]2CC[C@@H]1/C2=C\C1C[C@@H](F)[C@@H](F)C1 (some centres unmarked) [compound 828]	0.0033
COc1cc(F)c(C2=NOC3COCC23)cc1C(=O)N[C@@H]1C2CCC(/C2=C/C2CC2)[C@@H]1C(=O)Nc1ccc(F)c(C(F)(F)F)c1 (some centres unmarked) [compound 420]	0.001
COc1cc(F)c(F)cc1C(=O)N[C@@H]1C2CCC(/C2=C/c2cccc(-c3ccccc3)c2)[C@@H]1C(=O)Nc1ccc(F)c(C(F)(F)F)c1 (some centres unmarked) [compound 15]	0.11
COc1cc(F)c(F)cc1C(=O)N[C@@H]1C2CCC(/C2=C/c2ccc(C#N)cc2)[C@@H]1C(=O)Nc1ccc(F)c(C(F)(F)F)c1 (some centres unmarked) [compound 62]	0.71
O=C(N[C@H]1[C@@H](C(=O)Nc2ccc(F)c(C(F)(F)F)c2)[C@H]2CC[C@@H]1/C2=C\C1CC1)c1cc(C2=NOC3CC(CO)CC23)ccc1F (single isomer, unassigned) [compound 473]	0.0049
COc1ccc(-c2cc(C(=O)N3CC[C@H](O)C3)on2)cc1C(=O)N[C@H]1[C@@H](C(=O)Nc2ccc(F)c(C(F)(F)F)c2)[C@H]2CC[C@@H]1/C2=C\C1CC1 [compound 640]	0.214
COc1ccc(C2=NOC(C3(O)CCC3)C2)cc1C(=O)N[C@H]1[C@@H](C(=O)Nc2ccc(F)c(C(F)(F)F)c2)[C@H]2CC[C@@H]1/C2=C\C1CC1 (single isomer, unassigned) [compound 515]	0.0172
COc1ccc(-c2cc(C(OC(=O)Nc3ccccc3)C(=O)O)ccc2F)cc1C(=O)N[C@@H]1C2CCC(/C2=C/C(F)(F)F)[C@@H]1C(=O)Nc1ccc(F)c(C(F)(F)F)c1 (some centres unmarked) [compound 205]	0.001
COCCNC(=O)c1ccc(-c2ccc(OC)c(C(=O)N[C@@H]3C4CCC(/C4=C/c4ccccc4)[C@@H]3C(=O)Nc3ccc(F)c(C(F)(F)F)c3)c2)c(F)c1 (some centres unmarked) [compound 197]	0.051
COc1ccc(-c2cc(C(=O)N3CC[C@@H](O)C3)on2)cc1C(=O)N[C@H]1[C@@H](C(=O)Nc2ccc(F)c(C(F)(F)F)c2)[C@H]2CC[C@@H]1/C2=C\C1CC1 [compound 617]	0.153
COc1ccc(-c2cc(C(OC(=O)N(C)C3CCC3)C(F)(F)F)ccc2F)cc1C(=O)N[C@@H]1C2CCC(/C2=C/C2CC2)[C@@H]1C(=O)Nc1ccc(F)c(C(F)(F)F)c1 (some centres unmarked) [compound 209]	0.001
COc1ccc(-c2cc(C(OC(=O)Nc3ccccc3)C(F)(F)F)ccc2F)cc1C(=O)N[C@@H]1C2CCC(/C2=C/C2CC2)[C@@H]1C(=O)Nc1ccc(F)c(C(F)(F)F)c1 (single isomer, unassigned) [compound 229]	0.007
CN(C)c1c(Cl)cc(C2=NOC3COCC23)cc1C(=O)N[C@H]1[C@@H](C(=O)Nc2ccc(F)c(C(F)(F)F)c2)[C@H]2CC[C@@H]1/C2=C\C1CC1 (single isomer, unassigned) [compound 474]	0.005
COc1ccc(-c2cc(C(OC(=O)N3CCC3)C(F)(F)F)ccc2F)cc1C(=O)N[C@@H]1C2CCC(/C2=C/C2CC2)[C@@H]1C(=O)Nc1ccc(F)c(C(F)(F)F)c1 (some centres unmarked) [compound 216]	0.002
COc1ccc(C2=NOC3COCC23)cc1C(=O)N[C@H]1[C@@H](C(=O)N[C@H](C)C2CCCC2)[C@H]2CC[C@@H]1/C2=C\C1CC1 (some centres unmarked) [compound 535]	0.024
COc1ccc(-c2cc(C(=O)O)ccc2F)cc1C(=O)N[C@@H]1C2CCC(/C2=C/C2CC2)[C@@H]1C(=O)NC1Cc2ccccc2C1 (some centres unmarked) [compound 308]	2.39
COc1c(F)cc(-c2cc([C@H](OC(=O)NC3CCC3)C(F)(F)F)ccc2F)cc1C(=O)N[C@H]1[C@@H](C(=O)N[C@H](C)C2(C)CC2)[C@H]2CC[C@@H]1/C2=C\C1CC(F)(F)C1 [compound 970]	0.002
COc1ccc(Br)cc1C(=O)N[C@@H]1C2CCC(/C2=C\c2ccccc2)[C@@H]1C(=O)Nc1ccc(F)c(C(F)(F)F)c1 (some centres unmarked) [Example 78]	1.9
COc1ccc(C2=NOC3COCC23)cc1C(=O)N[C@@H]1C2CCC(/C2=C/C2CC2)[C@@H]1C(=O)Nc1ccc(F)c(OC(F)(F)F)c1 (some centres unmarked) [compound 973]	0.0058
COc1ccc(C2=NOC(C3(O)CCC3)C2)cc1C(=O)N[C@H]1[C@@H](C(=O)Nc2ccc(F)c(C(F)(F)F)c2)[C@H]2CC[C@@H]1/C2=C\C1CC1 (single isomer, unassigned) [compound 603]	0.112

Structure (SMILES)	EC50 [µM]
COc1ccc(C2=NO[C@H]3C[C@H](CO)C[C@@H]23)cc1C(=O)N[C@H]1[C@@H](C(=O)Nc2ccc(F)c(C(F)(F)F)c2)[C@H]2CC[C@@H]1/C2=C\CC(O)C(F)(F)F (some centres unmarked) [compound 820]	0.0024
COc1c(I)cc(I)cc1C(=O)N[C@@H]1C2CCC(/C2=C/c2ccccc2)[C@@H]1C(=O)Nc1ccc(F)c(C(F)(F)F)c1 (some centres unmarked) [compound 132]	0.22
COc1ccc(N2CCCC(CO)C2)cc1C(=O)N[C@@H]1C2CCC(/C2=C/C2CC2)[C@@H]1C(=O)Nc1ccc(F)c(C(F)(F)F)c1 (single isomer, unassigned) [compound 705]	1.3
COc1c(F)cc(C2=NOC3CC(CO)CC23)cc1C(=O)N[C@H]1[C@@H](C(=O)N[C@H](C)C2(C(F)(F)F)CC2)[C@H]2CC[C@@H]1/C2=C\C1CC1 (some centres unmarked) [compound 869]	0.0014
COc1ccc(C2=NOC3(C2)CC(CO)C3)cc1C(=O)N[C@H]1[C@@H](C(=O)Nc2ccc(F)c(C(F)(F)F)c2)[C@H]2CC[C@@H]1/C2=C\C1CC1 (single isomer, unassigned) [compound 711]	1.56
CCCC/C=C1\C2CCC1[C@H](C(=O)Nc1ccc(F)c(C(F)(F)F)c1)[C@@H]2NC(=O)c1cc(C2=NOC(CC(=O)O)C2)ccc1OC (some centres unmarked) [compound 395]	0.104
COc1ccc(C2=NO[C@H]3C[C@H](CO)CN23)cc1C(=O)N[C@H]1[C@@H](C(=O)Nc2ccc(F)c(C(F)(F)F)c2)[C@H]2CC[C@@H]1/C2=C\CC(C)C [compound 838]	0.0044
COc1ccc(C2=NOC3CC(C(N)=O)CC23)cc1C(=O)N[C@H]1[C@@H](C(=O)NCC(C)(C)C)[C@H]2CC[C@@H]1/C2=C\C1CC1 (some centres unmarked) [compound 516]	0.0176
COCCOCCOc1ccc(-c2cc(C(=O)O)ccc2F)cc1C(=O)N[C@@H]1C2CCC(/C2=C/c2ccccc2)[C@@H]1C(=O)Nc1ccc(F)c(C(F)(F)F)c1 (some centres unmarked) [Example 199]	0.128
CCCOc1c(F)cc(C2=NOC3CC(CO)CC23)cc1C(=O)N[C@H]1[C@@H](C(=O)Nc2ccc(F)c(C(F)(F)F)c2)[C@H]2CC[C@@H]1/C2=C\C1CC1 (some centres unmarked) [compound 779]	0.0016
CC[C@H](NC(=O)[C@@H]1[C@H](NC(=O)c2cc(C3=NOC4COCC34)ccc2OC)[C@@H]2CC[C@H]1/C2=C/C1CC1)C1CCC1 (some centres unmarked) [compound 676]	0.486
COc1cc(F)c(F)cc1C(=O)N[C@@H]1C2CCC(/C2=C/c2cccc(Oc3ccccc3)c2)[C@@H]1C(=O)Nc1ccc(F)c(C(F)(F)F)c1 (some centres unmarked) [compound 46]	0.12
COc1ccc(-c2cc(C(CO)NC(C)=O)ccc2F)cc1C(=O)N[C@@H]1C2CCC(/C2=C/C2CC2)[C@@H]1C(=O)Nc1ccc(F)c(C(F)(F)F)c1 (some centres unmarked) [Example 172]	0.005
COc1ccc(C2=NO[C@H]3COC[C@@H]23)cc1C(=O)N[C@H]1[C@@H](C(=O)Nc2ccc(F)c(C(F)(F)F)c2)[C@H]2CC[C@@H]1/C2=C\CC1CCC1 [compound 829]	0.0034
COc1ccc(-c2ccc(C(=O)O)cc2)cc1C(=O)N[C@@H]1C2CCC(/C2=C/c2ccccc2)[C@@H]1C(=O)Nc1ccc(F)c(C(F)(F)F)c1 (some centres unmarked) [Example 79]	0.011
COc1ccc(-c2ccc(C(=O)O)cc2F)cc1C(=O)N[C@H]1[C@@H](C(=O)Nc2ccc(F)c(C(F)(F)F)c2)[C@H]2CC[C@@H]1C2=C(C)C [compound 84]	0.11
COc1ccc(-c2cc(C3=NOC4CC(O)CC34)ccc2F)cc1C(=O)N[C@H]1[C@@H](C(=O)Nc2ccc(F)c(C(F)(F)F)c2)[C@H]2CC[C@@H]1/C2=C\C1CC1 (some centres unmarked) [compound 909]	0.004
COc1ccc(-c2cccnc2F)cc1C(=O)N[C@H]1[C@@H](C(=O)Nc2ccc(F)c(C(F)(F)F)c2)[C@H]2CC[C@@H]1/C2=C/c1ccccc1 [compound 95]	0.42
COc1ccc(C2=NOC(CNC(=O)OC(C)(C)C)C2)cc1C(=O)N[C@@H]1C2CCC(/C2=C/C(F)(F)F)[C@@H]1C(=O)Nc1ccc(F)c(C(F)(F)F)c1 (some centres unmarked) [compound 403]	1.39
COc1ccc(C2=NOC(C3(O)CC3)C2)cc1C(=O)N[C@H]1[C@@H](C(=O)NCC(C)(C)C)[C@H]2CC[C@@H]1/C2=C\C1CC1 (some centres unmarked) [compound 618]	0.155

Same assay, conditions: cAMP hRXFP1 HEK293 Assay EC50, HEK293 cells stably expressing human RXFP1, 30 min at room temperature

Structure (SMILES)	EC50 [µM]
COc1cc(F)c(F)cc1C(=O)N[C@@H]1C2CCC(/C2=C/c2c(Cl)cccc2Cl)[C@@H]1C(=O)Nc1ccc(F)c(C(F)(F)F)c1 (some centres unmarked) [compound 69]	3.7
